Here are results for five compounds from patent US20250345311A1, “CONJUGATE OF POLYPEPTIDE AND SMALL MOLECULE TARGETING KRAS AND ANTI-CANCER APPLICATION THEREOF” (Guangzhou Medical University, priority 2024, published 2025).

Where two headings read alike, the source gives them in different places.

Format in all cases: cell-based
In data set [1] the test system is H358 cells. Description: cells. On the procedure: The cytotoxicity of HGPF, cyclic peptide (CLYDVAGSDKYCGP), FN1-8, and FN1-8 methylamino derivative (FN1-8-CH2-NH2) was detected through CCK8 experiment. The cyclic peptide (CLYDVAGSDKYCGP) has a sequence shown in SEQ ID NO: 4, and it is Cys-Leu-Tyr-Asp-Val-Ala-Gly-Ser-Asp Lys-Tyr-Cys-Gly-Pro. The experimental steps are as follows:
8.1 Plate laying: Inoculate H358 cells in logarithmic growth phase into a 96-well plate (100 μl/well), with 6 replicate wells per group and a cell count of 5×10^3 cells per well, then place and culture in a 37° C., 5% CO2 incubator for 12 hours.
8.2 Use different concentrations of HGPF, HGPF+FAPα, cyclic peptides, FN1-8, and FN1-8-CH2-NH2 to treat with the experimental group. First, prepare the above drugs into a 100 mM mother solution, and then set […], namely 100 μM, 50 μM, 25 μM, 12.5 μM, 6.25 μM, 3.125 μM, 1.5625 μM, and 0.78125 μM, wherein the HGPF+FAPα group was the group added FAPα (1 μM) after adding the above concentrations of HGPF to simulate the tumor tissue microenvironment.
8.3 After 24 hours, wash the cells twice with PBS, then add 100 μL of pre-mixed CCK8 solution (culture medium:CCK8 working solution=9:1) to each well, and then continue to culture in a 37° C., 5% CO2 incubator for 2 hours.
8.4 Use a microplate reader to measure the absorbance D (2) of each well at a wavelength of 450 nm. Analyze the D (2) values of the blank group, the control group, and the experimental group to determine cellular activity. The cell survival rate reflects the cytotoxicity of drugs. The groups are as follows: • Experimental group (culture medium containing cells, CCK-8, test drug) • Control group (culture medium containing cells, CCK-8, without test drug) • Blank group (culture medium without cells and test substance, containing CCK-8)

The test system of data set [2] is lung cancer cell line H358 (carrying KRAS G12C mutation). Description: Uptake of HGP-FITC by lung cancer cells, flow cytometry. The conditions noted are these: different concentrations, 8 hours. On the procedure:
6.2 Incubate lung cancer cell line H358 (carrying KRAS G12C mutation) with different concentrations of HGP-FITC, and detect by flow cytometry after 8 hours.

The next data set has as its target T1, KRAS G12C (Homo sapiens, UniProt P01116, G12C).
T1 construct: endogenous in cells; host or cells: H358 lung cancer cells
Kind of data set: Specificity of HGP-FITC targeting KRAS G12C (pre-blocking, flow cytometry). Conditions: then 25 μM HGP-FITC, 8 hours. The method, then: 6.3 Based on the flow cytometry results, select a concentration of 25 μM for subsequent experiments. The lung cancer cell line H358 (carrying KRAS G12C mutation) was first blocked with 1:1000 KRAS antibody or 10 μM Sotorasib (KRAS G12C inhibitor) for 24 hours, and then incubated with 25 μM HGP-FITC. Fluorescence uptake was detected by flow cytometry after 8 hours.
For orientation: A flow cytometer gives signals particle by particle.

Data set [3] relates to H358 cells. Description: Scratch test, proliferation and migration of lung cancer cells. The conditions noted are these: H358, 10 μM, 24 hours. The method, then: The inhibitory effects of the conjugate HGPF and cyclic peptide (CLYDVAGSDKYCGP) on the proliferation and migration of lung cancer cells were detected by scratch test. The experimental steps are as follows:
9.1 Plate laying: First, mark 3 positioning lines at the bottom of the 6-well plate, then inoculate H358 cells in logarithmic growth phase onto the 6-well plate (2 ml/well), with a cell count of 1×10^6 per well, and then culture in a 37° C., 5% CO2 incubator for 24 hours.
9.2 Marking: Place the plate cover above the 6-well plate, use a 100μ pipettor tip to draw 3 straight lines vertically for each hole; then wash 4 times with PBS to wash away floating cell debris.
9.3 Administration: Replace the culture medium with a medium containing 2% serum, administer 10 μM of the drug to each group, take photos at 0 and 24 hours, observe scratch healing, and analyze with ImageJ software.

T1 sequence (P01116 1-188 isoform P01116-2 G12C): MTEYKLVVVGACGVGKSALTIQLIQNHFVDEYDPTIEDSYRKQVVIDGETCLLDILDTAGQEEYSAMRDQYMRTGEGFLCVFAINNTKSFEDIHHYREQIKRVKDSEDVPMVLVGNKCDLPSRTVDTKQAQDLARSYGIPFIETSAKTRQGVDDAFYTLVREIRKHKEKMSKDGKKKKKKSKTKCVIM

In the case of `O=C(NCc1ccc(O)cc1)C1C(c2ccccc2)=NN(c2ccccc2)C1c1ccccc1` (stereo not drawn) [FN1-8, reference compound], the “cytotoxicity against lung cancer cells” value in the data set on H358 cells [1] was “good cytotoxicity”. Further, the “effect of further increasing the concentration on cell viability” value in the data set with H358 cells [1] (H358, 24 hours, up to 100 μM) is listed as “cannot achieve the effect of completely inhibiting cell viability”. Further, in the data set with H358 cells [1] (Homo sapiens, NCI-H358, 24 h), the half-maximal inhibitory concentration (IC50) (commonly the concentration that gives 50% inhibition) came out at 4.34 µM.

`NCc1ccc(CNC(=O)C2C(c3ccccc3)=NN(c3ccccc3)C2c2ccccc2)cc1` (stereo not drawn) [FN1-8-CH2-NH2]: the “cytotoxicity against lung cancer cells” value in the data set on H358 cells [1] is listed as “good cytotoxicity”. Also, in the data set with H358 cells [1] (Homo sapiens, NCI-H358, 100 μM, 24 hours, read-out: inhibition rate on H358 cells), the inhibition (in general, the relative decrease from the control value, in per cent) at 100 µM was 100%. Besides, the IC50 in the data set with H358 cells [1] (Homo sapiens, NCI-H358, H358, 24 hours, CCK8, read-out: IC50) came to 4.68 µM.

For `CC(C)C[C@@H]1NC(=O)[C@@H](N)CSSC[C@@H](C(=O)NCC(=O)N2CCC[C@H]2C(=O)NCCCCC(NC(=S)Nc2ccc3c(c2)C(=O)OC32c3ccc(O)cc3Oc3cc(O)ccc32)C(=O)O)NC(=O)[C@H](Cc2ccc(O)cc2)NC(=O)[C@H](CCCCN)NC(=O)[C@H](CC(=O)O)NC(=O)[C@H](CO)NC(=O)CNC(=O)[C@H](C)NC(=O)[C@H](C(C)C)NC(=O)[C@H](CC(=O)O)NC(=O)[C@H](Cc2ccc(O)cc2)NC1=O` (stereo partly drawn) [HGP-FITC], in data set [2], the “uptake of HGP-FITC by H358 cells” value is given as “concentration dependent manner”. Besides, the “uptake of HGP-FITC by H358 cells after pre-block with Sotorasib” value on KRAS G12C (10 μM Sotorasib 24 hours) is “significantly reduced”. Further, the “uptake of HGP-FITC by H358 cells after pre-block with KRAS antibody” value on KRAS G12C (1:1000 KRAS antibody 24 hours) was “significantly reduced”.

In the case of `CC(C)C[C@@H]1NC(=O)[C@@H](N)CSSC[C@@H](C(=O)NCC(=O)N2CCC[C@H]2C(=O)NCc2ccc(CNC(=O)C3C(c4ccccc4)C(c4ccccc4)=NN3c3ccccc3)cc2)NC(=O)[C@H](Cc2ccc(O)cc2)NC(=O)[C@H](CCCCN)NC(=O)[C@H](CC(=O)O)NC(=O)[C@H](CO)NC(=O)CNC(=O)[C@H](C)NC(=O)[C@H](C(C)C)NC(=O)[C@H](CC(=O)O)NC(=O)[C@H](Cc2ccc(O)cc2)NC1=O` (stereo partly drawn) [HGPF], the “cytotoxicity against lung cancer cells” value with H358 cells [1] is reported as “weak cytotoxicity”. In the data set with H358 cells [1] (24 h), this compound showed an IC50 of 3.66 µM. Moreover, the results for the “inhibitory effect on proliferation and migration of tumor cells” value in the data set on H358 cells [3] (with FAPα) and in the data set with H358 cells [3] (without FAPα) were “significantly inhibited” and “no inhibitory effect”, respectively.

On to `CC(C)C[C@@H]1NC(=O)[C@@H](N)CSSC[C@@H](C(=O)NCC(=O)N2CCC[C@H]2C(=O)O)NC(=O)[C@H](Cc2ccc(O)cc2)NC(=O)[C@H](CCCCN)NC(=O)[C@H](CC(=O)O)NC(=O)[C@H](CO)NC(=O)CNC(=O)[C@H](C)NC(=O)[C@H](C(C)C)NC(=O)[C@H](CC(=O)O)NC(=O)[C@H](Cc2ccc(O)cc2)NC1=O` [cyclic peptide, Cys-Leu-Tyr-Asp-Val-Ala-Gly-Ser-Asp Lys-Tyr-Cys-Gly-Pro], for which, in the data set with H358 cells [1], the “cytotoxicity against lung cancer cells” value is given as “weak cytotoxicity”. For the same compound, the “inhibitory effect on proliferation and migration of tumor cells” value in the data set with H358 cells [3] (without FAPα) is reported as “no inhibitory effect”.
